Laboratory results: US9451763B2, “Disinfectant formulation” (Laboratoire M2, priority 2008, dated 2016)

Tested on: Staphylococcus aureus (ATCC 6538)
Assay: Minimum concentration for total antimicrobial activity, AOAC method 955.15 (Phenol Coefficient Method) with minor modifications
Format: cell-based

Structure (SMILES) | antimicrobial activity (in words) | Minimal Concentration (minimum concentration for total antimicrobial activity, incorporated into composition F, contact time 10 minutes, turbidity after 72 hours at 37° C.)
Cc1ccc(C(C)C)cc1O [Carvacrol] | excellent antimicrobial activity | 0.07 v/v %
Cc1ccc(C(C)C)c(O)c1 [Thymol] | excellent antimicrobial activity | –
